# Assays:
# [1] = system: transplanted tumor with U937 cells; experiment: Mouse transplanted tumor model, U937; format: in vivo; conditions: mice, U937 tumor under the skin, intraperitoneal 0.1 ml per day, 18-35 d
# Protocol: (§1) Developing mouse transplanted tumor models with acute myeloid leukemic cell lines such as Kasumi-1, HL60 and U937 cells, inject 1×10^7 leukemic cells under the skin. When the tumors are 5 mm in diameter, divide the mice into two groups, control group(con) and groups with SM1044 in various concentrations. Mice intraperitoneally infused with 0.125 ml (kasumi-1 and H160 cells) or 0.1 ml (U937 cells) SM1044 per day, while mice in control groups get equivalent saline, for a course of 18-35 d, measuring the tumors everyday.
# [2] = system: oncogene c-myc; experiment: Western blot of c-myc expression in HL60 cells; format: cell-based; conditions: HL60, above 1 μM/L, 24 hours
# Protocol: Plate 3×10^5/mL HL60 cells in dishes. Setting control group (0 μM) and groups with SM1044 in various concentrations, and incubating for 24 hours. Extracting whole protein of the cells, detect the variation of expression of oncogene c-myc by c-myc antibody through western blot. Over-expression of oncogene c-myc is a character of HL60 cells.
# [3] = system: transplanted tumor with Kasumi-1 cells; experiment: Mouse transplanted tumor model, Kasumi-1; format: in vivo; conditions: mice, Kasumi-1 tumor under the skin, intraperitoneal 0.125 ml per day, 18-35 d
# Protocol: as §1
# [4] = system: caspase-3, caspase-8 and/or caspase-9 in NB4-R1 cells; experiment: Western blot of apoptosis-related proteins, NB4-R1; format: cell-based; conditions: NB4-R1, 24 hours
# Protocol: (§2) Respectively plate 3×10^5˜5×10^5 cells/ml of NB4-R1, HL60 and U937 cells in dishes. Setting control group (0 μM) and groups with SM1044 in various concentrations, and incubating for 24 hours. Extracting whole protein of the cells, detect the quantitive variation of […] related proteins (PARP, caspase-3, caspase-8, caspase-9) by antibodies through western blot. Caspase family plays an important role in mediating apoptosis. There are at least two broad pathways that lead to Apoptosis. One is extracellular signals activating intracellular caspase-8, etc, the other is mitochondria-derived activators of caspases activating caspase-9, etc. Therefore the activaigted caspases activate apoptotic excutants—caspase3 to induce apoptosis, and PARP is the substrate of caspase-3.
# [5] = system: Kasumi-1 cells; experiment: Cell cycle analysis, PI flow cytometry, Kasumi-1; format: cell-based; conditions: for cells in G0/G1 phase / cells in G2/M phase / cells in S phase: 24 hours
# Protocol: (§3) Plate 5×10^5/mL Kasumi-1 cells and HL60 cells respectively in dishes. Setting control group (0 μM) and groups with SM1044 in various concentrations, and incubating for 24 hours (kasumi-1 cells) or 12 hours (HL60 cells). Harvest the cells, wash cells with PBS twice, and add 70% ice cold ethanol overnight to fix the cells. Wash cells with PBS, and resuspend the cells in PBS with 10 mg/ml RNase, incubating at 37° C. for 30 min. Add 50 μg/ml propidium iodide (PI), analyzing the distribution of DNA contents by flow cytometry in 1 hour.
# [6] = system: Kasumi-1 cells; experiment: Annexin V-FITC/PI flow cytometry apoptosis, Kasumi-1; format: cell-based; conditions: Kasumi-1, 24-48 hours, various concentrations
# Protocol: (§4) Respectively plate 3×10^5˜5×10^5 cells/m1 of Kasumi-1, NB4-R1, HL60 and U937cells in dishes. Setting control group (0 μM) and groups with SM1044 in various concentrations, incubate for 24 h and 48 h. Harvest cells and wash cells with pre-cooling phosphate buffer twice. Resuspend the cells in 200 μL binding buffer, and add 5 μL Annexin V-FITC and 5 μL propidium iodide (PI), gently mixing, incubating for 15 min at room temperature in the dark, analyzing by flow cytometry in 1 hour.
# [7] = system: AML1-ETO fusion gene; experiment: RT-PCR of AML1-ETO fusion gene mRNA in Kasumi-1 cells; format: cell-based; conditions: Kasumi-1, 24 hours
# Protocol: (§5) Plate 1×10^7 Kasumi-1 cells with 20 mL medium in dish. Setting control group (0 μM) and groups with SM1044 in various concentrations, and incubating for 24 hours. Extract the whole RNA, and detect the variation of fusion gene at the mRNA level by RT-PCR (FIG. 5A). […] Plate 5×10^5 Kasumi-1 cells in a dish. Setting control group (0 μM) and groups with SM1044 in various concentrations, and incubating for 24 hours. Extracting whole protein of the cells, detect the variation of AML1-ETO fusion protein by ETO antibody through western blot (FIG. 5B). […] It can be concluded that SM1044 doesn't effect the transcription of AML1-ETO fusion gene, but can induce the degradation of the fusion protein. As the typical fusion gene of AML-M2b, AML1-ETO fusion protein plays an important role in the occurrence of leukemia, which can be a target for medical treatments.
# [8] = system: NB4-R1 cells; experiment: Loss of mitochondrial membrane potential, DiOC6(3) flow cytometry, NB4-R1; format: cell-based
# Protocol: (§6) Respectively plate 3×10^5˜5×10^5 cells/ml of Kasumi-1, NB4-R1, HL60 and U937cells in dishes. Setting control group (0 μM) and groups with SM1044 in various concentrations, incubate for 24 h and 48 h. Add 20 nM DiOC6(3) and incubate for 15 min at 37° C. in the dark. Wash cells with PBS twice, and resuspend the cells in 100 μLPBS, analyzing by flow cytometry. The cells which are DiOC6(3) negative are those that lose mitochondrial membrane potential. […] There are at least two broad pathways that lead to Apoptosis, an “Extrinsic” and an “Intrinsic” Pathway, and the loss of mitochondrial membrane potential is very closely related to intrinsic pathway.
# [9] = system: U937 cells; experiment: Annexin V-FITC/PI flow cytometry apoptosis, U937; format: cell-based; conditions: U937, 24-48 hours, various concentrations
# Protocol: as §4
# [10] = target: T1, AML1-ETO fusion protein (Homo sapiens, UniProt Q01196+Q06455); experiment: Western blot of AML1-ETO fusion protein in Kasumi-1 cells; format: cell-based; conditions: Kasumi-1, 1 μM/L, 24 hours
# T1 construct: Extracting whole protein of the cells; endogenous in cells; host or cells: Kasumi-1 cells
# Protocol: as §5
# [11] = system: NB4-R1 cells; experiment: Annexin V-FITC/PI flow cytometry apoptosis, NB4-R1; format: cell-based; conditions: NB4-R1, 24-48 hours, various concentrations
# Protocol: as §4
# [12] = system: U937 cells; experiment: Loss of mitochondrial membrane potential, DiOC6(3) flow cytometry, U937; format: cell-based
# Protocol: as §6
# [13] = system: HL60 cells; experiment: MTT inhibition test, HL60 cells; format: cell-based; conditions: Homo sapiens, HL-60, 48 h
# Protocol: (§7) First dissolve SM1044 in triple distilled water, concentration: 1 mg/ml, then choose typical AML cell lines such as Kasumi-1, NB4-R1, HL60 and U937 cells to perform the experiments. Plate 2.5×10^5 cells in dishes, respectively, blank group, control group without SM1044, and groups with SM1044 in various concentrations, and 3 wells for each concentration. Add MTT (5 mg/ml) to each well after incubating for a certain period, and incubate the plate for further 4 h. Centrifuge and aspirate 180 μl supernatant. Add 180 μl DMSO to each well, and place the plate a shaking table for 15 min. Measure the absorbance(A) at 570 nm using a microplate reader, and calculate the half maximal inhibitory concentration (IC50).
# [14] = system: HL-60 cells; experiment: Loss of mitochondrial membrane potential, DiOC6(3) flow cytometry, HL-60; format: cell-based
# Protocol: as §6
# [15] = system: U937 cells; experiment: MTT inhibition test, U937 cells; format: cell-based; conditions: Homo sapiens, U-937, 48 h
# Protocol: as §7
# [16] = system: HL60 cells; experiment: Cell cycle analysis, PI flow cytometry, HL60; format: cell-based; conditions: for cells in G0/G1 phase / cells in G2/M phase / cells in S phase: 12 hours
# Protocol: as §3
# [17] = system: transplanted tumor with HL60 cells; experiment: Mouse transplanted tumor model, HL60; format: in vivo; conditions: mice, HL60 tumor under the skin, intraperitoneal 0.125 ml per day, 18-35 d
# Protocol: as §1
# [18] = system: NB4-R1 cells; experiment: MTT inhibition test, NB4-R1 cells; format: cell-based; conditions: 48 h
# Protocol: as §7
# [19] = system: caspase-3, caspase-8 and/or caspase-9 in HL60 cells; experiment: Western blot of apoptosis-related proteins, HL60; format: cell-based; conditions: HL60, 24 hours
# Protocol: as §2
# [20] = system: HL60 cells; experiment: Annexin V-FITC/PI flow cytometry apoptosis, HL60; format: cell-based; conditions: HL60, 24-48 hours, various concentrations
# Protocol: as §4
# [21] = system: Kasumi-1 cells; experiment: Loss of mitochondrial membrane potential, DiOC6(3) flow cytometry, Kasumi-1; format: cell-based
# Protocol: as §6
# [22] = system: caspase-3, caspase-8 and/or caspase-9 in U937 cells; experiment: Western blot of apoptosis-related proteins, U937; format: cell-based; conditions: U937, 24 hours
# Protocol: as §2
# [23] = system: Kasumi-1 cells; experiment: MTT inhibition test, Kasumi-1 cells; format: cell-based; conditions: Homo sapiens, 48 h
# Protocol: as §7
# T1 sequence (Q01196+Q06455 fused): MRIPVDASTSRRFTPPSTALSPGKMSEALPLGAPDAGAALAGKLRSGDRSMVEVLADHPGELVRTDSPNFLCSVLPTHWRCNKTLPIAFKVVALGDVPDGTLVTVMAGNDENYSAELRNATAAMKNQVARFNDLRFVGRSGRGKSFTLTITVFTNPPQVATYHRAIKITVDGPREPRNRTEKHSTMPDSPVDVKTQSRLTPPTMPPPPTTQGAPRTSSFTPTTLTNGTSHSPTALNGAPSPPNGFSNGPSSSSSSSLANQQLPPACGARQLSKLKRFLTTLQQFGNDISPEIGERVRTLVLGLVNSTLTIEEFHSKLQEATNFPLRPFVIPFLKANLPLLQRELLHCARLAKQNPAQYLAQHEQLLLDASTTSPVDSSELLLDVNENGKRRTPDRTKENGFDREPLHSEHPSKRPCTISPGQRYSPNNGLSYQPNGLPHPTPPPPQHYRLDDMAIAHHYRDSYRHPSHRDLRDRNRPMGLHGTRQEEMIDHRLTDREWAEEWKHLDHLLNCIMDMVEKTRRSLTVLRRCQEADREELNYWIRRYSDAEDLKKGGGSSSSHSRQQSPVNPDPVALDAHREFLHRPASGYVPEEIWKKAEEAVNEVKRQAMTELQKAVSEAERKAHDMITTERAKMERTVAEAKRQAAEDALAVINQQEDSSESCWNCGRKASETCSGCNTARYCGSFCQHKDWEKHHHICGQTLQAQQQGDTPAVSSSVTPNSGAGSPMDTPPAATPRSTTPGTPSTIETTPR
compound,measurement,setting,value
"C[C@H]1[C@@H](OCCNCCO[C@H]2O[C@@H]3O[C@@]4(C)CC[C@H]5[C@H](C)CC[C@@H]([C@H]2C)[C@@]35OO4)O[C@@H]2O[C@@]3(C)CC[C@H]4[C@H](C)CC[C@@H]1[C@@]24OO3.O=C(O)/C=C\C(=O)O [SM1044, diarteethe amine maleate]",tumor size compared with control group,[1],obviously little than controls
same,expression of oncogene c-myc,[2],completely inhibit
same,tumor size compared with control group,[3],obviously little than controls
same,"activated apoptosis-related proteins (caspase-3, caspase-8 and/or caspase-9)",[4],increase
same,cells in G0/G1 phase,"[5]; Kasumi-1, 0.1 μM",59.62%
same,cells in G2/M phase,"[5]; Kasumi-1, 0.1 μM",6.01%
same,cells in S phase,"[5]; Kasumi-1, 0.1 μM",34.37%
same,cells in G0/G1 phase,"[5]; Kasumi-1, 1 μM",71.75%
same,cells in G2/M phase,"[5]; Kasumi-1, 1 μM",6.70%
same,cells in S phase,"[5]; Kasumi-1, 1 μM",21.75%
same,cells in G0/G1 phase,"[5]; Kasumi-1, 5 μM",71.07%
same,cells in G2/M phase,"[5]; Kasumi-1, 5 μM",6.00%
same,cells in S phase,"[5]; Kasumi-1, 5 μM",21.92%
same,cell cycle block,"[5]; Kasumi-1, 24 hours",blocked in G0/G1 phase
same,apoptosis induction,[6],can induce apoptosis
same,variation of AML1-ETO fusion gene at the mRNA level,[7],no effect on the transcription of fusion gene
same,percentage of DiOC6(3) negative NB4-R1 cells,"[8]; 0.1 μM, 24 h",13.9%
same,percentage of DiOC6(3) negative NB4-R1 cells,"[8]; 0.1 μM, 48 h",16.3%
same,percentage of DiOC6(3) negative NB4-R1 cells,"[8]; 1 μM, 24 h",17.1%
same,percentage of DiOC6(3) negative NB4-R1 cells,"[8]; 1 μM, 48 h",33.0%
same,percentage of DiOC6(3) negative NB4-R1 cells,"[8]; 5 μM, 24 h",15.0%
same,percentage of DiOC6(3) negative NB4-R1 cells,"[8]; 5 μM, 48 h",30.0%
same,apoptosis induction,[9],can induce apoptosis
same,degradation of AML1-ETO fusion protein,[10],can induce the degradation of AML1-ETO fusion protein
same,apoptosis induction,[11],can induce apoptosis
same,percentage of DiOC6(3) negative U937 cells,"[12]; 0.1 μM, 24 h",4.3%
same,percentage of DiOC6(3) negative U937 cells,"[12]; 0.1 μM, 48 h",5.9%
same,percentage of DiOC6(3) negative U937 cells,"[12]; 1 μM, 24 h",5.2%
same,percentage of DiOC6(3) negative U937 cells,"[12]; 1 μM, 48 h",5.6%
same,percentage of DiOC6(3) negative U937 cells,"[12]; 5 μM, 24 h",9.4%
same,percentage of DiOC6(3) negative U937 cells,"[12]; 5 μM, 48 h",16.2%
same,IC50,[13],40 nM
same,percentage of DiOC6(3) negative HL-60 cells,"[14]; 0.1 μM, 24 h",23.8%
same,percentage of DiOC6(3) negative HL-60 cells,"[14]; 0.1 μM, 48 h",61.7%
same,percentage of DiOC6(3) negative HL-60 cells,"[14]; 1 μM, 24 h",25.6%
same,percentage of DiOC6(3) negative HL-60 cells,"[14]; 1 μM, 48 h",77.1%
same,percentage of DiOC6(3) negative HL-60 cells,"[14]; 5 μM, 24 h",48.5%
same,percentage of DiOC6(3) negative HL-60 cells,"[14]; 5 μM, 48 h",81.1%
same,IC50,[15],20 nM
same,cells in G0/G1 phase,"[16]; HL60, 0.1 μM",41.60%
same,cells in G2/M phase,"[16]; HL60, 0.1 μM",3.80%
same,cells in S phase,"[16]; HL60, 0.1 μM",54.61%
same,cells in G0/G1 phase,"[16]; HL60, 1 μM",44.12%
same,cells in G2/M phase,"[16]; HL60, 1 μM",8.00%
same,cells in S phase,"[16]; HL60, 1 μM",47.88%
same,cells in G0/G1 phase,"[16]; HL60, 5 μM",54.48%
same,cells in G2/M phase,"[16]; HL60, 5 μM",8.00%
same,cells in S phase,"[16]; HL60, 5 μM",37.52%
same,cell cycle block,"[16]; HL60, 12 hours",blocked in G0/G1 phase
same,tumor size compared with control group,[17],obviously little than controls
same,IC50,[18],21 nM
same,"activated apoptosis-related proteins (caspase-3, caspase-8 and/or caspase-9)",[19],increase
same,apoptosis induction,[20],can induce apoptosis
same,percentage of DiOC6(3) negtive Kasumi-1 cells,"[21]; 0.1 μM, 24 h",24.1%
same,percentage of DiOC6(3) negtive Kasumi-1 cells,"[21]; 0.1 μM, 48 h",44.9%
same,percentage of DiOC6(3) negtive Kasumi-1 cells,"[21]; 1 μM, 24 h",33.8%
same,percentage of DiOC6(3) negtive Kasumi-1 cells,"[21]; 1 μM, 48 h",47.1%
same,percentage of DiOC6(3) negtive Kasumi-1 cells,"[21]; 5 μM, 24 h",63.2%
same,percentage of DiOC6(3) negtive Kasumi-1 cells,"[21]; 5 μM, 48 h",79.2%
same,"activated apoptosis-related proteins (caspase-3, caspase-8 and/or caspase-9)",[22],increase
same,IC50,[23],170 nM

# — patent publication US20130317095A1, “Use of Artemisine Derivatives and Pharmaceutical Salts Thereof” (Shanghai Institute of Materia Medica, Chinese Academy of …, priority 2011, published 2013)
